Test results taken from patent US9809623B2, “α4β7 peptide monomer and dimer antagonists” (Protagonist Therapeutics, Inc., priority 2014, dated 2017).
Bridge positions count the residues as written; N and C are the ends. Square brackets hold non-standard residues; d marks the D form. Peptide text beside a SMILES is read from it. * marks the point of attachment. Phe(4-tBu) = CC(C)(C)c1ccc(C[C@H](N)C(=O)O)cc1; 2Nal = N[C@@H](Cc1ccc2ccccc2c1)C(=O)O; NMeR = CN[C@@H](CCCNC(=N)N)C(=O)O; β3hE = N[C@@H](CCC(=O)O)CC(=O)O; Cha = N[C@@H](CC1CCCCC1)C(=O)O; Pen = CC(C)(S)[C@H](N)C(=O)O; hLeu = CC(C)CC[C@H](N)C(=O)O; Isovaleryl = CC(C)CC(=O)*; Hexanoyl = CCCCCC(=O)*

Each compound was assayed against α4β7 (Homo sapiens, UniProt P13612+P26010) (assay: α4β7-MAdCAM Cell Adhesion Assay (RPMI 8866 human cells)). Conditions: Table 3-B, Potency (α4β7); range classes; read-out: α4β7 cell (Hu) IC50.
Format: cell-based
Set-up: host or cells: RPMI 8866 human B lymphoblastoid cells
Outline: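 Adhesion read-out: MTT absorbance at 570 nm minus no-cell wells, after three washes. Plates coated with rh MAdCAM-1/Fc received peptide dilutions plus 200,000 RPMI 8866 cells in Mn2+ (1 mM)-supplemented DMEM, 0.1% BSA, HEPES pH 7, incubated 30-45 min, 37 °C.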

Sequence of α4β7 (P13612 34-1032): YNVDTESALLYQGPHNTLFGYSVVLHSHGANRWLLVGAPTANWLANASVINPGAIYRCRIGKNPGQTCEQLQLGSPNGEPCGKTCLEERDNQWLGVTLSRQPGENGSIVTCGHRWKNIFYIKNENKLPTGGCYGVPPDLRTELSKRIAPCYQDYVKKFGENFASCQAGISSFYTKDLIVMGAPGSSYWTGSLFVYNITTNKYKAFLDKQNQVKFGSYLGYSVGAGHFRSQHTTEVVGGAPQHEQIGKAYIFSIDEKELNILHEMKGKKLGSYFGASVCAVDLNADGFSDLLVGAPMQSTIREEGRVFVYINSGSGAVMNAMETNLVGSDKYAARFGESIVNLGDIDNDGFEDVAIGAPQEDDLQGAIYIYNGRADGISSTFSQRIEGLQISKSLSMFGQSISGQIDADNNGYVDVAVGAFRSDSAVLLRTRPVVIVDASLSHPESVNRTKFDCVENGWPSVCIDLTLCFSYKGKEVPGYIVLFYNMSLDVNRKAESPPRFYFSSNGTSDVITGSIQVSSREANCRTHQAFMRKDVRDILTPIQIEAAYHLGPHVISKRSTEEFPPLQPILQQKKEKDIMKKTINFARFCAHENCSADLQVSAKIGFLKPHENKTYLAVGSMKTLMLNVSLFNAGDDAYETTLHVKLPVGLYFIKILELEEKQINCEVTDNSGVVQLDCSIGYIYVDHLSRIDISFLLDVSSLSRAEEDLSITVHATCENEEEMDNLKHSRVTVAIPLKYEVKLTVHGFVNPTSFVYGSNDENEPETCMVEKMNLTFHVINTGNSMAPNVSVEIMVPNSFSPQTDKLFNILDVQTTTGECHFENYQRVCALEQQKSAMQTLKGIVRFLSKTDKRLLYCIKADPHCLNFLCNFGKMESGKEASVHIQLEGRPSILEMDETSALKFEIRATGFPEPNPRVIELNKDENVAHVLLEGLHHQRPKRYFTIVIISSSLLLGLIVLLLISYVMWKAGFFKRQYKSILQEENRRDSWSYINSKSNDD
Sequence of α4β7 (P26010 20-798): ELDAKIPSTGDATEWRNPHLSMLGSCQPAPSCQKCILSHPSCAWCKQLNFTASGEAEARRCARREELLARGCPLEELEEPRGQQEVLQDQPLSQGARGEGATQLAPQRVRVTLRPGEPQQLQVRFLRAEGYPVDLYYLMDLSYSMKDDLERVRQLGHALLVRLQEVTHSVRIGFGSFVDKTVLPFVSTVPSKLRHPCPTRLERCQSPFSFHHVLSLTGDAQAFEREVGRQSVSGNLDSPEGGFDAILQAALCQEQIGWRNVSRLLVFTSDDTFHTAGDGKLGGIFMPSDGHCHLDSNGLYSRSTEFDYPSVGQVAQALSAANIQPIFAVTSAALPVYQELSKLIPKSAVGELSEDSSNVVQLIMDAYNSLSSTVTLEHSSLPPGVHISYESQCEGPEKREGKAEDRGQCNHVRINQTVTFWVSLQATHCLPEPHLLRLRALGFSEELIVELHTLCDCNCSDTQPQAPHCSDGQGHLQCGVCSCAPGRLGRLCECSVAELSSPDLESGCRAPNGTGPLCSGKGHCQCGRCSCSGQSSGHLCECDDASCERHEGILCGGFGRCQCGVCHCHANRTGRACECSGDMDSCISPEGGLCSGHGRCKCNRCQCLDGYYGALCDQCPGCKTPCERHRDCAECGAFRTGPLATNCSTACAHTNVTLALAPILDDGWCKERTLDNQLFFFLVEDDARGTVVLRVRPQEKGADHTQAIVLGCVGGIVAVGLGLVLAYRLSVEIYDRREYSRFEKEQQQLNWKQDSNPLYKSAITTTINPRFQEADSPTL

| Structure (SMILES) | IC50 [µM] |
| --- | --- |
| CC(=O)N[C@@H]1C(=O)N(C)[C@@H](CCCNC(=N)N)C(=O)N[C@@H](CO)C(=O)N[C@@H](CC(=O)O)C(=O)N[C@@H](CC2CCCCC2)C(=O)N[C@@H](CC(C)C)C(=O)N[C@H](C(=O)N[C@@H](Cc2ccc3ccccc3c2)C(=O)N[C@H](CCC(=O)O)C(N)=O)C(C)(C)SSC1(C)C [compound 158] (Ac-[Pen][NMeR]SD[Cha]L[Pen][2Nal][dE]-NH2; disulfide 1-7) | 1 to 10 |
| CC(=O)N[C@@H]1C(=O)N(C)[C@@H](CCCNC(=N)N)C(=O)N[C@@H](CO)C(=O)N[C@@H](CC(=O)O)C(=O)N[C@@H](CC(C)C)C(=O)N[C@@H](CC(C)C)C(=O)N[C@H](C(=O)N[C@@H](Cc2ccc3ccccc3c2)C(=O)N[C@H](CCC(=O)O)C(N)=O)C(C)(C)SSC1(C)C [compound 159] (Ac-[Pen][NMeR]SDLL[Pen][2Nal][dE]-NH2; disulfide 1-7) | 1 to 10 |
| CC[C@H](C)[C@@H]1NC(=O)[C@H](CC(=O)O)NC(=O)[C@H](CO)NC(=O)[C@H](CCCNC(=N)N)N(C)C(=O)[C@@H](NC(C)=O)C(C)(C)SSC(C)(C)[C@@H](C(=O)N[C@@H](Cc2ccc3ccccc3c2)C(=O)N[C@H](CCC(=O)O)C(N)=O)NC(=O)[C@H](CC(C)C)NC1=O [compound 160] (Ac-[Pen][NMeR]SDIL[Pen][2Nal][dE]-NH2; disulfide 1-7) | 1 to 10 |
| CC(=O)N[C@@H]1C(=O)N(C)[C@@H](CCCNC(=N)N)C(=O)N[C@@H](CO)C(=O)N[C@@H](CC(=O)O)C(=O)N[C@@H](CCC(C)C)C(=O)N[C@@H](CC(C)C)C(=O)N[C@H](C(=O)N[C@@H](Cc2ccc3ccccc3c2)C(=O)N[C@H](CCC(=O)O)C(N)=O)C(C)(C)SSC1(C)C [compound 161] (Ac-[Pen][NMeR]SD[hLeu]L[Pen][2Nal][dE]-NH2; disulfide 1-7) | 1 to 10 |
| CC(=O)N[C@@H]1C(=O)N(C)[C@@H](CCCNC(=N)N)C(=O)N[C@@H](CO)C(=O)N[C@@H](CC(=O)O)C(=O)N[C@@H]([C@@H](C)O)C(=O)N[C@@H](Cc2ccccc2)C(=O)N[C@H](C(=O)N[C@@H](Cc2ccc3ccccc3c2)C(=O)N[C@H](CCC(=O)O)C(N)=O)C(C)(C)SSC1(C)C [compound 162] (Ac-[Pen][NMeR]SDTF[Pen][2Nal][dE]-NH2; disulfide 1-7) | 1 to 10 |
| CC(=O)N[C@@H]1C(=O)N(C)[C@@H](CCCNC(=N)N)C(=O)N[C@@H](CO)C(=O)N[C@@H](CC(=O)O)C(=O)N[C@@H]([C@@H](C)O)C(=O)N[C@@H](CCC(N)=O)C(=O)N[C@H](C(=O)N[C@@H](Cc2ccc3ccccc3c2)C(=O)N[C@H](CCC(=O)O)C(N)=O)C(C)(C)SSC1(C)C [compound 163] (Ac-[Pen][NMeR]SDTQ[Pen][2Nal][dE]-NH2; disulfide 1-7) | 1 to 10 |
| CC(=O)N[C@@H]1C(=O)N(C)[C@@H](CCCNC(=N)N)C(=O)N[C@@H](CO)C(=O)N[C@@H](CC(=O)O)C(=O)N[C@@H]([C@@H](C)O)C(=O)N[C@@H](Cc2ccc(O)cc2)C(=O)N[C@H](C(=O)N[C@@H](Cc2ccc3ccccc3c2)C(=O)N[C@H](CCC(=O)O)C(N)=O)C(C)(C)SSC1(C)C [compound 164] (Ac-[Pen][NMeR]SDTY[Pen][2Nal][dE]-NH2; disulfide 1-7) | 1 to 10 |
| CCCCCC(=O)N[C@@H]1C(=O)N(C)[C@@H](CCCNC(=N)N)C(=O)N[C@@H](CO)C(=O)N[C@@H](CC(=O)O)C(=O)N[C@@H]([C@@H](C)O)C(=O)N[C@@H](CC(C)C)C(=O)N[C@H](C(=O)N[C@@H](Cc2ccc(C(C)(C)C)cc2)C(=O)N[C@@H](CCC(=O)O)CC(=O)N[C@H](CCCCN)C(N)=O)C(C)(C)SSC1(C)C [compound 176] (Hexanoyl-[Pen][NMeR]SDTL[Pen][Phe(4-tBu)][β3hE][dK]-NH2; disulfide 1-7) | 0.05 to 0.1 |
| CC(C)CC(=O)N[C@@H]1C(=O)N(C)[C@@H](CCCNC(=N)N)C(=O)N[C@@H](CO)C(=O)N[C@@H](CC(=O)O)C(=O)N[C@@H]([C@@H](C)O)C(=O)N[C@@H](CC(C)C)C(=O)N[C@H](C(=O)N[C@@H](Cc2ccc(C(C)(C)C)cc2)C(=O)N[C@@H](CCC(=O)O)CC(=O)N[C@H](CCCCN)C(N)=O)C(C)(C)SSC1(C)C [compound 177] (Isovaleryl-[Pen][NMeR]SDTL[Pen][Phe(4-tBu)][β3hE][dK]-NH2; disulfide 1-7) | 0.05 to 0.1 |
